Test system: participants with SSc-RP
Assay: Frequency of weekly symptomatic RP attacks (patient diary), Phase 2a Part A
Format: in vivo, human
Settings: ITT Part A
Text: Percent change from baseline evaluation for frequency of weekly RP attacks were or will be used as the primary efficacy variable. The sponsor-developed participant-informed diary will be used to record data. Frequency of weekly RP attacks is defined as the total number of RP attacks divided by the number of days with available diary data within the last 7 days of each dosing period then multiplied by 7. Total number of RP attacks during the last 7 days of screening period divided by the number of days with available data then multiplied by 7 will be used as baseline for the analysis of all periods. The variable will be calculated as follows: […]
Percent change from baseline evaluation for frequency of weekly RP attacks was and will be the primary efficacy endpoint. Frequency of weekly RP attacks is defined as the total number of RP attacks divided by the number of days with available diary data within the last 7 days of each dosing period then multiplied by 7. Total number of RP attacks during the last 7 days of screening period divided by the number of days with available data then multiplied by 7 will be used as baseline for the analysis of all periods.

[1] = Cilnidipine 10 mg, n=1, Excluding Outliers
[2] = Cilnidipine 10 mg, n=1, by Baseline RCS, first block (RCS <5.0)
[3] = Cilnidipine 20 mg, n=2, Excluding Outliers
[4] = Cilnidipine 20 mg, n=2, by Baseline RCS, first block (RCS <5.0)
[5] = Pooled Cilnidipine 10 mg and Cilnidipine 10 mg + Tadalafil 5 mg, n=1, by Baseline RCS, second block (RCS >5.0)
[6] = Pooled Cilnidipine 10 mg and Cilnidipine 10 mg + Tadalafil 5 mg, n=2, by Baseline RCS, first block (RCS <5.0)
[7] = Pooled Cilnidipine 10 mg and Cilnidipine 10 mg + Tadalafil 5 mg, n=3
[8] = Pooled Cilnidipine 10 mg and Cilnidipine 10 mg + Tadalafil 5 mg, n=3, Excluding Outliers
[9] = Pooled Cilnidipine 10 mg and Cilnidipine 10 mg + Tadalafil 5 mg, n=1, excluding outliers, second Baseline RCS subgroup, last 7 days of dosing
[10] = Pooled Cilnidipine 10 mg and Cilnidipine 10 mg + Tadalafil 5 mg, n=2, excluding outliers, first Baseline RCS subgroup, last 7 days of dosing
[11] = Pooled Cilnidipine 20 mg and Cilnidipine 20 mg + Tadalafil 5 mg, n=1, by Baseline RCS, second block (RCS >5.0)
[12] = Pooled Cilnidipine 20 mg and Cilnidipine 20 mg + Tadalafil 5 mg, n=3, by Baseline RCS, first block (RCS <5.0)
[13] = Pooled Cilnidipine 20 mg and Cilnidipine 20 mg + Tadalafil 5 mg, n=4
[14] = Pooled Cilnidipine 20 mg and Cilnidipine 20 mg + Tadalafil 5 mg, n=4, Excluding Outliers
[15] = Pooled Cilnidipine 20 mg and Cilnidipine 20 mg + Tadalafil 5 mg, n=1, excluding outliers, second Baseline RCS subgroup, last 7 days of dosing
[16] = Pooled Cilnidipine 20 mg and Cilnidipine 20 mg + Tadalafil 5 mg, n=3, excluding outliers, first Baseline RCS subgroup, last 7 days of dosing
[17] = Pooled Cilnidipine (10 or 20 mg), n=3
[18] = Pooled Cilnidipine (10 or 20 mg), n=3, Excluding Outliers
[19] = Pooled Cilnidipine (10 or 20 mg), n=3, by Baseline RCS, first block (RCS <5.0)
[20] = Pooled Cilnidipine arms, n=3, excluding outliers, first Baseline RCS subgroup, last 7 days of dosing
[21] = cilnidipine 10 mg daily, n=1, excluding outliers, first Baseline RCS subgroup, last 7 days of dosing
[22] = cilnidipine 20 mg daily, n=2, excluding outliers, first Baseline RCS subgroup, last 7 days of dosing

COCCOC(=O)C1=C(C)NC(C)=C(C(=O)OC/C=C/c2ccccc2)C1c1cccc([N+](=O)[O-])c1 (centres unmarked) [Cilnidipine]
Weekly Symptomatic RP Attacks Change from Baseline, Mean (Cilnidipine 10 mg, n=1): −7.00 | Weekly Symptomatic RP Attacks Change from Baseline, Median (Cilnidipine 10 mg, n=1): −7.00 | Weekly Symptomatic RP Attacks Percent Change from Baseline, Mean (Cilnidipine 10 mg, n=1): −33.33% | Weekly Symptomatic RP Attacks Percent Change from Baseline, Median (Cilnidipine 10 mg, n=1): −33.33% | Weekly Symptomatic RP Attacks, Mean (Cilnidipine 10 mg, n=1): 14.00 | Weekly Symptomatic RP Attacks, Median (Cilnidipine 10 mg, n=1): 14.00 | Weekly Symptomatic RP Attacks Change from Baseline, Mean [1]: −7.00 | Weekly Symptomatic RP Attacks Change from Baseline, Median [1]: −7.00 | Weekly Symptomatic RP Attacks Percent Change from Baseline, Mean [1]: −33.33% | Weekly Symptomatic RP Attacks Percent Change from Baseline, Median [1]: −33.33% | Weekly Symptomatic RP Attacks, Mean [1]: 14.00 | Weekly Symptomatic RP Attacks, Median [1]: 14.00 | Weekly Symptomatic RP Attacks Change from Baseline, Mean [2]: −7.00 | Weekly Symptomatic RP Attacks Change from Baseline, Median [2]: −7.00 | Weekly Symptomatic RP Attacks Percent Change from Baseline, Mean [2]: −33.33% | Weekly Symptomatic RP Attacks Percent Change from Baseline, Median [2]: −33.33% | Weekly Symptomatic RP Attacks, Mean [2]: 14.00 | Weekly Symptomatic RP Attacks, Median [2]: 14.00 | Weekly Symptomatic RP Attacks Change from Baseline, Mean (Cilnidipine 20 mg, n=2): −4.50 | Weekly Symptomatic RP Attacks Change from Baseline, Median (Cilnidipine 20 mg, n=2): −4.50 | Weekly Symptomatic RP Attacks Percent Change from Baseline, Mean (Cilnidipine 20 mg, n=2): −33.73% | Weekly Symptomatic RP Attacks Percent Change from Baseline, Median (Cilnidipine 20 mg, n=2): −33.73% | Weekly Symptomatic RP Attacks, Mean (Cilnidipine 20 mg, n=2): 8.00 | Weekly Symptomatic RP Attacks, Median (Cilnidipine 20 mg, n=2): 8.00 | Weekly Symptomatic RP Attacks Change from Baseline, Mean [3]: −4.50 | Weekly Symptomatic RP Attacks Change from Baseline, Median [3]: −4.50 | Weekly Symptomatic RP Attacks Percent Change from Baseline, Median [3]: −33.73% | Weekly Symptomatic RP Attacks, Mean [3]: 8.00 | Weekly Symptomatic RP Attacks, Median [3]: 8.00 | Weekly Symptomatic RP Attacks Change from Baseline, Mean [4]: −4.50 | Weekly Symptomatic RP Attacks Change from Baseline, Median [4]: −4.50 | Weekly Symptomatic RP Attacks Percent Change from Baseline, Mean [4]: −33.73% | Weekly Symptomatic RP Attacks Percent Change from Baseline, Median [4]: −33.73% | Weekly Symptomatic RP Attacks, Mean [4]: 8.00 | Weekly Symptomatic RP Attacks, Median [4]: 8.00 | Weekly Symptomatic RP Attacks Change from Baseline, Mean [5]: −3.00 | Weekly Symptomatic RP Attacks Change from Baseline, Median [5]: −3.00 | Weekly Symptomatic RP Attacks Percent Change from Baseline, Mean [5]: −42.86% | Weekly Symptomatic RP Attacks Percent Change from Baseline, Median [5]: −42.86% | Weekly Symptomatic RP Attacks, Mean [5]: 4.00 | Weekly Symptomatic RP Attacks, Median [5]: 4.00 | Weekly Symptomatic RP Attacks Change from Baseline, Mean [6]: −5.50 | Weekly Symptomatic RP Attacks Change from Baseline, Median [6]: −5.50 | Weekly Symptomatic RP Attacks Percent Change from Baseline, Mean [6]: −38.89% | Weekly Symptomatic RP Attacks Percent Change from Baseline, Median [6]: −38.89% | Weekly Symptomatic RP Attacks, Mean [6]: 9.50 | Weekly Symptomatic RP Attacks, Median [6]: 9.50 | Weekly Symptomatic RP Attacks Change from Baseline, Mean [7]: −4.67 | Weekly Symptomatic RP Attacks Change from Baseline, Median [7]: −4.00 | Weekly Symptomatic RP Attacks Percent Change from Baseline, Mean [7]: −40.21% | Weekly Symptomatic RP Attacks Percent Change from Baseline, Median [7]: −42.86% | Weekly Symptomatic RP Attacks, Mean [7]: 7.67 | Weekly Symptomatic RP Attacks, Median [7]: 5.00 | Weekly Symptomatic RP Attacks Change from Baseline, Mean [8]: −4.67 | Weekly Symptomatic RP Attacks Change from Baseline, Median [8]: −4.00 | Weekly Symptomatic RP Attacks Percent Change from Baseline, Mean [8]: −40.21% | Weekly Symptomatic RP Attacks Percent Change from Baseline, Median [8]: −42.86% | Weekly Symptomatic RP Attacks, Mean [8]: 7.67 | Weekly Symptomatic RP Attacks, Median [8]: 5.00 | Weekly Symptomatic RP Attacks Change from Baseline, Mean [9]: −3.00 | Weekly Symptomatic RP Attacks Change from Baseline, Median [9]: −3.00 | Weekly Symptomatic RP Attacks Percent Change from Baseline, Mean [9]: −42.86% | Weekly Symptomatic RP Attacks Percent Change from Baseline, Median [9]: −42.86% | Weekly Symptomatic RP Attacks, Mean [9]: 4.00 | Weekly Symptomatic RP Attacks, Median [9]: 4.00 | Weekly Symptomatic RP Attacks Change from Baseline, Mean [10]: −5.50 | Weekly Symptomatic RP Attacks Change from Baseline, Median [10]: −5.50 | Weekly Symptomatic RP Attacks Percent Change from Baseline, Mean [10]: −38.89% | Weekly Symptomatic RP Attacks Percent Change from Baseline, Median [10]: −38.89% | Weekly Symptomatic RP Attacks, Mean [10]: 9.50 | Weekly Symptomatic RP Attacks, Median [10]: 9.50 | Weekly Symptomatic RP Attacks Change from Baseline, Mean [11]: −0.50 | Weekly Symptomatic RP Attacks Change from Baseline, Median [11]: −0.50 | Weekly Symptomatic RP Attacks Percent Change from Baseline, Mean [11]: −4.76% | Weekly Symptomatic RP Attacks Percent Change from Baseline, Median [11]: −4.76% | Weekly Symptomatic RP Attacks, Mean [11]: 10.00 | Weekly Symptomatic RP Attacks, Median [11]: 10.00 | Weekly Symptomatic RP Attacks Change from Baseline, Mean [12]: −4.67 | Weekly Symptomatic RP Attacks Change from Baseline, Median [12]: −5.00 | Weekly Symptomatic RP Attacks Percent Change from Baseline, Mean [12]: −31.75% | Weekly Symptomatic RP Attacks Percent Change from Baseline, Median [12]: −28.57% | Weekly Symptomatic RP Attacks, Mean [12]: 9.67 | Weekly Symptomatic RP Attacks, Median [12]: 11.00 | Weekly Symptomatic RP Attacks Change from Baseline, Mean [13]: −3.63 | Weekly Symptomatic RP Attacks Change from Baseline, Median [13]: −3.50 | Weekly Symptomatic RP Attacks Percent Change from Baseline, Mean [13]: −25.00% | Weekly Symptomatic RP Attacks Percent Change from Baseline, Median [13]: −28.17% | Weekly Symptomatic RP Attacks, Mean [13]: 9.75 | Weekly Symptomatic RP Attacks, Median [13]: 10.50 | Weekly Symptomatic RP Attacks Change from Baseline, Mean [14]: −3.63 | Weekly Symptomatic RP Attacks Change from Baseline, Median [14]: −3.50 | Weekly Symptomatic RP Attacks Percent Change from Baseline, Mean [14]: −25.00% | Weekly Symptomatic RP Attacks Percent Change from Baseline, Median [14]: −28.17% | Weekly Symptomatic RP Attacks, Mean [14]: 9.75 | Weekly Symptomatic RP Attacks, Median [14]: 10.50 | Weekly Symptomatic RP Attacks Change from Baseline, Mean [15]: −0.50 | Weekly Symptomatic RP Attacks Change from Baseline, Median [15]: −0.50 | Weekly Symptomatic RP Attacks Percent Change from Baseline, Mean [15]: −4.76% | Weekly Symptomatic RP Attacks Percent Change from Baseline, Median [15]: −4.76% | Weekly Symptomatic RP Attacks, Mean [15]: 10.00 | Weekly Symptomatic RP Attacks, Median [15]: 10.00 | Weekly Symptomatic RP Attacks Change from Baseline, Mean [16]: −4.67 | Weekly Symptomatic RP Attacks Change from Baseline, Median [16]: −5.00 | Weekly Symptomatic RP Attacks Percent Change from Baseline, Mean [16]: −31.75% | Weekly Symptomatic RP Attacks Percent Change from Baseline, Median [16]: −28.57% | Weekly Symptomatic RP Attacks, Mean [16]: 9.67 | Weekly Symptomatic RP Attacks, Median [16]: 11.00 | Weekly Symptomatic RP Attacks Change from Baseline, Mean [17]: −5.33 | Weekly Symptomatic RP Attacks Change from Baseline, Median [17]: −7.00 | Weekly Symptomatic RP Attacks Percent Change from Baseline, Mean [17]: −33.60% | Weekly Symptomatic RP Attacks Percent Change from Baseline, Median [17]: −33.33% | Weekly Symptomatic RP Attacks, Mean [17]: 10.00 | Weekly Symptomatic RP Attacks, Median [17]: 11.00 | Weekly Symptomatic RP Attacks Change from Baseline, Mean [18]: −5.33 | Weekly Symptomatic RP Attacks Change from Baseline, Median [18]: −7.00 | Weekly Symptomatic RP Attacks Percent Change from Baseline, Mean [18]: −33.60% | Weekly Symptomatic RP Attacks Percent Change from Baseline, Median [18]: −33.33% | Weekly Symptomatic RP Attacks, Mean [18]: 10.00 | Weekly Symptomatic RP Attacks, Median [18]: 11.00 | Weekly Symptomatic RP Attacks Change from Baseline, Mean [19]: −5.33 | Weekly Symptomatic RP Attacks Change from Baseline, Median [19]: −7.00 | Weekly Symptomatic RP Attacks Percent Change from Baseline, Mean [19]: −33.60% | Weekly Symptomatic RP Attacks Percent Change from Baseline, Median [19]: −33.33% | Weekly Symptomatic RP Attacks, Mean [19]: 10.00 | Weekly Symptomatic RP Attacks, Median [19]: 11.00 | Weekly Symptomatic RP Attacks Change from Baseline, Mean [20]: −5.33 | Weekly Symptomatic RP Attacks Change from Baseline, Median [20]: −7.00 | Weekly Symptomatic RP Attacks Percent Change from Baseline, Mean [20]: −33.60% | Weekly Symptomatic RP Attacks Percent Change from Baseline, Median [20]: −33.33% | Weekly Symptomatic RP Attacks, Mean [20]: 10.00 | Weekly Symptomatic RP Attacks, Median [20]: 11.00 | Weekly Symptomatic RP Attacks Change from Baseline, Mean [21]: −7.00 | Weekly Symptomatic RP Attacks Change from Baseline, Median [21]: −7.00 | Weekly Symptomatic RP Attacks Percent Change from Baseline, Mean [21]: −33.33% | Weekly Symptomatic RP Attacks Percent Change from Baseline, Median [21]: −33.33% | Weekly Symptomatic RP Attacks, Mean [21]: 14.00 | Weekly Symptomatic RP Attacks, Median [21]: 14.00 | Weekly Symptomatic RP Attacks Change from Baseline, Mean [22]: −4.50 | Weekly Symptomatic RP Attacks Change from Baseline, Median [22]: −4.50 | Weekly Symptomatic RP Attacks Percent Change from Baseline, Mean [22]: −33.73% | Weekly Symptomatic RP Attacks Percent Change from Baseline, Median [22]: −33.73% | Weekly Symptomatic RP Attacks, Mean [22]: 8.00 | Weekly Symptomatic RP Attacks, Median [22]: 8.00
